In experiment [1] the target is trypsin.
The subject of experiment [2] is trypsin. Nature of the experiment: Inhibition of trypsin by recombinant McoTI-II (ZFR-AMC substrate). In kind it is biochemical.
Experiment [3] relates to trypsin. The following applies: cited from earlier work. The text has this:
McoTI-II is a stable cyclic peptide found in seeds of the plant Momordica cochinchinensis. It belongs to the trypsin inhibitor subfamily of cyclotides and has been the most preferred framework for grafting and engineering novel biological activities. […] A range of substitutions in the trypsin inhibitory reactive site (loop 1) and the P1 residue have been used to develop a series of McoTI-I analogs with specificity towards alternate proteases with moderate affinity. […] Therefore, we expect that a modification involving a backbone cyclization would lead to further improvement in the e ...

Experiment [4] has as its system papain. The following applies: E-64 and its derivatives; cited from earlier work.
The test system of experiment [5] is papain. Nature of the experiment: Proteolytic activity assay, BSA digestion by papain on SDS-PAGE. In kind it is biochemical. The following applies: BSA 1.0 mg/mL, 0.1 M sodium acetate pH 5.5, 0.1% SDS, E:S 1:10, 40 °C, 8 min, preincubated with papain. The procedure:
The protein substrate, BSA, at a concentration of 1.0 mg/mL in 0.1 M sodium acetate buffer (pH 5.5) containing 0.1% SDS was incubated with papain, papain preincubated with E-64, and papain preincubated with Mco-CPI protein. The papain enzyme used was pre-activated with 2 mM dithiothreitol. The ratio of enzyme to the substrate (E:S) was maintained at 1:10. The digestion was allowed to be carried at 40 °C for 8 min. This method was adapted from Zucker et al., 1985 [59]. The degradation products of each reaction were analysed on 12% SDS-PAGE gel.

Where no end group is shown, it is not given here.

In turn, “McoTI-II (Momordica cochinchinensis trypsin inhibitor-II), recombinant protein with tags (from UniProt P82409 1-34) (natural protein)” displayed an inhibition of trypsin activity on ZFR-AMC (fluorescence), 50 mM Tris-HCl pH 8.0, 50 mM NaCl, 5 mM CaCl2 in experiment [1] of 2.12 µM.

The term IC50 denotes the point on the concentration scale where inhibition reaches its midpoint. Turning to “McoTI-II recombinant protein: McoTI-II protein with tags, recombinantly expressed as starting control (SGSDGGVCPKILKKCRRDSDCPGACICRGNGYCG; ends and bridges not checked; also: with tags (recombinant); UniProt P82409 1-34, looked up)”, the “% trypsin inhibition, concentration dependence (in words)” value in experiment [2] (Supplementary Figure S6E) is given as “An increase in % trypsin inhibition”. The IC50 in experiment [2] (ZFR-AMC substrate, 50 mM Tris-HCl pH 8.0, 50 mM NaCl, 5 mM CaCl2, three technical replicates, read-out: IC50 against trypsin) was 2120 nM.

With “McoTI-II: stable cyclic peptide found in seeds of the plant Momordica cochinchinensis (cyclo(SGSDGGVCPKILKKCRRDSDCPGACICRGNGYCG); disulfide (positions not given here); ends not checked; also: three disulfides, pairing not given here; UniProt P82409 1-34, looked up)”, in experiment [3] (McoTI-II purified from plant sources or chemically synthesized as a cyclic molecule), the “trypsin inhibition range (in words)” value is on record as “sub-nM range”. Moreover, the “trypsin inhibitory activity (in words)” value in experiment [3] (natural McoTI-II) was “potent (sub-nM)”.

`CC(C)C[C@H](NC(=O)[C@H]1O[C@@H]1C(=O)O)C(=O)NCCCCN=C(N)N` [E-64]: in experiment [4], the “IC50 against papain (in words)” value is reported as “nanomolar range”. In addition, the “inhibition of papain proteolytic activity on BSA (in words)” value in experiment [5] was “completely inhibit the proteolytic activity of papain with no digestion products observed on the gel”.

(Values after publication PMC7822474, “Repurposing the McoTI-II Rigid Molecular Scaffold in to Inhibitor of ‘Papain Superfamily’ Cysteine Proteases” (Pharmaceuticals, 2020).)
